Measured values taken from publication PMC4514675, “Novel Apo E-Derived ABCA1 Agonist Peptide (CS-6253) Promotes Reverse Cholesterol Transport and Induces Formation of preβ-1 HDL In Vitro” (PLoS ONE, 2015).

Columns and labels:
[1] = test system: THP-1 foam cells; test: Cholesterol efflux from THP-1 macrophage-derived foam cells; type: cell-based, human
Protocol: Human THP-1 macrophages (American Type Tissue Culture Collection, Camden, NJ) were grown as previously reported. Cells were plated at 2x10^5/ml 24 well-plates in RPMI1640 medium containing 10% fetal bovine serum (FBS), 50 μM β–mercaptoethanol, 50 μg/ml gentamicin, and maintained at 37°C in a humidified atmosphere of 5% CO2. THP-1 cells were differentiated into macrophages by the addition of 200 nM phorbol myristyl acetate (PMA) for 72h. Macrophages were incubated for 72h to become fully differentiated macrophages prior to experiment. […]
Human macrophages THP-1 cells were labelled with ^3H-cholesterol (5 μCi/ml) incorporated into AcLDL (100 μg/ml) in the presence of 1% FBS, 50 μM β-mercaptoethanol and 200 nM PMA, and incubated for 72h. […] Medium and cell associated ^3H-cholesterol were then measured by liquid scintillation counting. Cholesterol efflux was calculated according to the following equation as the percentage of ^3H-cpm medium / (^3H-cpm medium + ^3H-cpm cells) × 100%. […] Bands corresponding to ^3[H]-FC and ^3[H]-CE were located by exposure to iodine vapor, and were scraped off the plate into liquid scintillating vials and assayed for radioactivity.
Fig 2 Effect of CS-6253 treatment on cholesterol efflux. […] Cholesterol efflux from either ABCA1 cells or control cells to apo A-I (closed circles), and CS-6253 (closed triangles) was determined at the indicated time points. […]

[2] = test system: BHK-mock cells; test: Cholesterol efflux from BHK-mock cells to acceptor in human plasma; type: cell-based, hamster
Protocol: We investigated cholesterol efflux from BHK cells after adding lipid free CS-6253 to media cell culture or to human EDTA-plasma which had been stored at -80°C. BHK overexpressing human ABCA1 were labeled with 2 μCi/ml ^3H-free cholesterol (Perkin Elmer, Norwalk, Connecticut) for 24 h. Afterward, BHK-ABCA1 were stimulated with 10 nmol/l mifepristone for 18–20 h (13). Cells were incubated with various doses of acceptor in media for 4 h at 37°C. Alternatively, plasma samples were first pre-incubated for 5 min at 37°C in plasma at mole ratios (10:1 or 1:1 relative to plasma apo A-I). To obtain the HDL fraction, apoB lipoproteins were precipitated from plasma by polyethylene glycol (PEG). Also, increased doses of lipid free CS-6253 and nHDL-CS-6253 were tested for cholesterol efflux after incubation with human plasma for optimum 1h at 37°C. ^3[H]-cholesterol loaded BHK cells expressing ABCA1 were incubated with 2.8% apoB depleted plasma samples [19] for 4 h for the efflux assays. Lipid free apo A-I and nHDL-apo A-I were used as control, nHDL-CS-6253 and nHDL-apo A-I were generated after incubation with BHK cells expressing ABCA1. […]
Fig 7 Dose dependent effects of pre-incubation of plasma with lipid free CS-6253, or nHDL-CS-6253 on ABCA1 cholesterol efflux. […] Isolated HDL fractions by PEG were separated by 2D-PAGGE and HDL subpopulations were detected by apo A-I Western blot. […]

apolipoprotein A-I [apo A-I] was tested, and the “3H-FC removed from FC-enriched THP-1 cells” value ([1]; 0.96 μM acceptor, 24 h, vs control without acceptor, triplicate wells, mean ± SD) was 27.42±1.04%, the “proportion of FC mobilized away from the CE cycle” value ([1]; THP-1 foam cells, P<0.05) was 29% and the “maximum efflux capacity, BHK-mock” value ([2]; acceptor in human plasma) was “similar”. The “Vmax, cholesterol efflux, BHK-mock” value ([2]; acceptor in human plasma 1 h, 37°C) was 0.30±0.15 % efflux/6h.
